# In PMC9516332 (Frontiers in Oncology, 2022):
# Like-named read-outs stand apart in the source and are kept apart here.
# Columns and labels:
# 134 cancer cell lines [1] = assay: Cell viability assay (ATPlite, 72 hours), IC50 on cancer cell line panel
# 134 cancer cell lines [2] = test system: 134 cancer cell lines
# AP-1060 (ETV6-NTRK3) = assay: Cell viability assay; conditions: read-out: IC50 in cell proliferation assay
structure (smiles),measurement,setting,value
Cc1cc(Nc2ncc(Cl)c(Nc3ccccc3S(=O)(=O)C(C)C)n2)c(OC(C)C)cc1C1CCNCC1 [ceritinib],IC50,"134 cancer cell lines [1]; Homo sapiens, MeWo, read-out: IC50 in cell proliferation assay, MeWo cell line",3200 nM
same,IC50,"134 cancer cell lines [1]; Homo sapiens, NCCIT, read-out: IC50 in cell proliferation assay, NCC-IT cell line",3110 nM
same,IC50,"134 cancer cell lines [1]; Homo sapiens, NCI-H82, read-out: IC50 in cell proliferation assay, cell line NCI-H82",1570 nM
same,IC50,"134 cancer cell lines [1]; Homo sapiens, NCI-H460, read-out: IC50 in cell proliferation assay, NCI-H460 cell line",3160 nM
same,IC50,"134 cancer cell lines [1]; Homo sapiens, NCI-H661, read-out: IC50 in cell proliferation assay, NCI-H661 cell line",3470 nM
same,IC50,"134 cancer cell lines [1]; Homo sapiens, NCI-H716, read-out: IC50 in cell proliferation assay, cell line NCI-H716 (FGFR2-COL14A1)",1550 nM
same,IC50,"134 cancer cell lines [1]; Homo sapiens, NCI-H1650, read-out: IC50 in cell proliferation assay, NCI-H1650 cell line (EGFR exon19del)",3380 nM
same,IC50,"134 cancer cell lines [1]; Homo sapiens, NCI-H1975, read-out: IC50 in cell proliferation assay, NCI-H1975 cell line (EGFR p.L858R + p.T790M)",1920 nM
same,IC50,"134 cancer cell lines [1]; Homo sapiens, NCI-H2228, read-out: IC50 in cell proliferation assay, NCI-H2228 cell line (EML4-ALK)",38 nM
same,IC50,"134 cancer cell lines [1]; Homo sapiens, OVCAR-3, read-out: IC50 in cell proliferation assay, cell line OVCAR-3",5140 nM
same,IC50,"134 cancer cell lines [1]; Homo sapiens, PFSK-1, read-out: IC50 in cell proliferation assay, cell line PFSK-1",1540 nM
same,IC50,"134 cancer cell lines [1]; Homo sapiens, RL95-2, read-out: IC50 in cell proliferation assay, cell line RL95-2 (EGFR p.A289V)",1760 nM
same,IC50,"134 cancer cell lines [1]; Homo sapiens, RPMI-7951, read-out: IC50 in cell proliferation assay, cell line RPMI-7951 (BRAF p.V600E)",3680 nM
same,IC50,"134 cancer cell lines [1]; Homo sapiens, RS4-11, read-out: IC50 in cell proliferation assay, cell line RS4;11",1080 nM
same,IC50,"134 cancer cell lines [1]; Homo sapiens, Rec1, read-out: IC50 in cell proliferation assay, cell line REC-1",2210 nM
same,IC50,"134 cancer cell lines [1]; Homo sapiens, SHP77, read-out: IC50 in cell proliferation assay, cell line SHP-77",3400 nM
same,IC50,"134 cancer cell lines [1]; Homo sapiens, SK-BR-3, read-out: IC50 in cell proliferation assay, cell line SK-BR-3 (ERBB2 amplification)",3910 nM
same,IC50,"134 cancer cell lines [1]; Homo sapiens, SK-N-AS, read-out: IC50 in cell proliferation assay, cell line SK-N-AS",2090 nM
same,IC50,"134 cancer cell lines [1]; Homo sapiens, SK-N-FI, read-out: IC50 in cell proliferation assay, cell line SK-N-FI",537 nM
same,IC50,"134 cancer cell lines [1]; Homo sapiens, SK-N-MC, read-out: IC50 in cell proliferation assay, cell line SK-N-MC",709 nM
same,IC50,"134 cancer cell lines [1]; Homo sapiens, SK-N-SH, read-out: IC50 in cell proliferation assay, cell line SK-N-SH (ALK p.F1174L)",875 nM
same,IC50,"134 cancer cell lines [1]; Homo sapiens, SNU-5, read-out: IC50 in cell proliferation assay, cell line SNU-5 (MET amplification)",3870 nM
same,IC50,"134 cancer cell lines [1]; Homo sapiens, SNU-16, read-out: IC50 in cell proliferation assay, cell line SNU-16 (FGFR2 amplification)",3800 nM
same,IC50,"134 cancer cell lines [1]; Homo sapiens, SNU-C2B, read-out: IC50 in cell proliferation assay, cell line SNU-C2B (EGFR p.R165Q)",2540 nM
same,IC50,"134 cancer cell lines [1]; Homo sapiens, SU-DHL-1, read-out: IC50 in cell proliferation assay, cell line SU-DHL-1 (NPM1-ALK)",192 nM
same,IC50,"134 cancer cell lines [1]; Homo sapiens, SU-DHL-6, read-out: IC50 in cell proliferation assay, cell line SU-DHL-6",2950 nM
same,IC50,"134 cancer cell lines [1]; Homo sapiens, SUP-T1, read-out: IC50 in cell proliferation assay, cell line SUP-T1",3500 nM
same,IC50,"134 cancer cell lines [1]; Homo sapiens, SW48, read-out: IC50 in cell proliferation assay, cell line SW48 (EGFR p.G719S)",1290 nM
same,IC50,"134 cancer cell lines [1]; Homo sapiens, SW480, read-out: IC50 in cell proliferation assay, cell line SW480",2440 nM
same,IC50,"134 cancer cell lines [1]; Homo sapiens, SW626, read-out: IC50 in cell proliferation assay, cell line SW626",3430 nM
same,IC50,"134 cancer cell lines [1]; Homo sapiens, SW780, read-out: IC50 in cell proliferation assay, cell line SW780 (FGFR3-BAIAP2L1)",2070 nM
same,IC50,"134 cancer cell lines [1]; Homo sapiens, SW837, read-out: IC50 in cell proliferation assay, cell line SW837",2940 nM
same,IC50,"134 cancer cell lines [1]; Homo sapiens, SW872, read-out: IC50 in cell proliferation assay, cell line SW872 (BRAF p.V600E)",2780 nM
same,IC50,"134 cancer cell lines [1]; Homo sapiens, SW900, read-out: IC50 in cell proliferation assay, cell line SW900",2340 nM
same,IC50,"134 cancer cell lines [1]; Homo sapiens, SW948, read-out: IC50 in cell proliferation assay, cell line SW948",2280 nM
same,IC50,"134 cancer cell lines [1]; Homo sapiens, SW982, read-out: IC50 in cell proliferation assay, cell line SW982 (BRAF p.V600E)",4150 nM
same,IC50,"134 cancer cell lines [1]; Homo sapiens, SW-620, read-out: IC50 in cell proliferation assay, cell line SW620",1560 nM
same,IC50,"134 cancer cell lines [1]; Homo sapiens, T98G, read-out: IC50 in cell proliferation assay, cell line T98G",4700 nM
same,IC50,"134 cancer cell lines [1]; Homo sapiens, TCC-SUP, read-out: IC50 in cell proliferation assay, cell line TCCSUP",3820 nM
same,IC50,"134 cancer cell lines [1]; Homo sapiens, THP-1, read-out: IC50 in cell proliferation assay, cell line THP-1",4760 nM
same,IC50,"134 cancer cell lines [1]; Homo sapiens, U2OS, read-out: IC50 in cell proliferation assay, cell line U2OS",3860 nM
same,IC50,"134 cancer cell lines [1]; Homo sapiens, U-87 MG, read-out: IC50 in cell proliferation assay, cell line U-87MG ATCC",4440 nM
same,IC50,"134 cancer cell lines [1]; Homo sapiens, U-118-MG, read-out: IC50 in cell proliferation assay, cell line U-118MG",3850 nM
same,IC50,"134 cancer cell lines [1]; Homo sapiens, UMUC3, read-out: IC50 in cell proliferation assay, cell line UM-UC-3",2570 nM
same,IC50,"134 cancer cell lines [1]; Hs766T, read-out: IC50 in cell proliferation assay, Hs 766T cell line",3520 nM
same,IC50,"134 cancer cell lines [1]; L-82, read-out: IC50 in cell proliferation assay, L-82 cell line (NPM1-ALK)",33 nM
same,IC50,"134 cancer cell lines [1]; Rh30, read-out: IC50 in cell proliferation assay, cell line Rh30",1010 nM
same,IC50,"134 cancer cell lines [1]; read-out: IC50 in cell proliferation assay, 11-18 cell line (EGFR p.L858R)",2090 nM
same,IC50,"134 cancer cell lines [1]; read-out: IC50 in cell proliferation assay, Hs 852.T cell line",1870 nM
same,IC50,"134 cancer cell lines [1]; read-out: IC50 in cell proliferation assay, JAR cell line",3580 nM
same,IC50,"134 cancer cell lines [1]; read-out: IC50 in cell proliferation assay, cell line 5637",2490 nM
same,IC50,"134 cancer cell lines [1]; read-out: IC50 in cell proliferation assay, cell line A-388",3640 nM
same,IC50,"134 cancer cell lines [1]; read-out: IC50 in cell proliferation assay, cell line DB",3990 nM
same,IC50,"134 cancer cell lines [1]; read-out: IC50 in cell proliferation assay, cell line DEL (NPM1-ALK)",62 nM
same,IC50,"134 cancer cell lines [1]; read-out: IC50 in cell proliferation assay, cell line ES-2 (BRAF p.V600E)",2810 nM
same,IC50,"134 cancer cell lines [1]; read-out: IC50 in cell proliferation assay, cell line PA-1",2080 nM
same,IC50,"134 cancer cell lines [1]; read-out: IC50 in cell proliferation assay, cell line PC-3",4060 nM
same,IC50,"134 cancer cell lines [1]; read-out: IC50 in cell proliferation assay, cell line RD",1710 nM
same,IC50,"134 cancer cell lines [1]; read-out: IC50 in cell proliferation assay, cell line RKO (BRAF p.V600E)",1630 nM
same,IC50,"134 cancer cell lines [1]; read-out: IC50 in cell proliferation assay, cell line RL",4060 nM
same,IC50,"134 cancer cell lines [1]; read-out: IC50 in cell proliferation assay, cell line RT-4 (FGFR3-TACC3)",4050 nM
same,IC50,"134 cancer cell lines [1]; read-out: IC50 in cell proliferation assay, cell line SR (NPM1-ALK)",200 nM
same,IC50,"134 cancer cell lines [1]; read-out: IC50 in cell proliferation assay, cell line T24",4040 nM
same,IC50,"134 cancer cell lines [1]; read-out: IC50 in cell proliferation assay, cell line TT (RET p.C634W)",3830 nM
same,IC50,"134 cancer cell lines [1]; read-out: IC50 in cell proliferation assay, cell line VA-ES-BJ",4250 nM
same,IC50,134 cancer cell lines [2],3850 nM
same,IC50,AP-1060 (ETV6-NTRK3),1770 nM
